These results are taken from patent publication US6982279B2, “Arylated furan- and thiophenecarboxamides, processes for their preparation, their use as medicaments, and pharmaceutical preparations comprising them” (Aventis Pharm Deutschland GmbH, priority 2000, dated 2006).

T1 sequence (P22460 whole entry): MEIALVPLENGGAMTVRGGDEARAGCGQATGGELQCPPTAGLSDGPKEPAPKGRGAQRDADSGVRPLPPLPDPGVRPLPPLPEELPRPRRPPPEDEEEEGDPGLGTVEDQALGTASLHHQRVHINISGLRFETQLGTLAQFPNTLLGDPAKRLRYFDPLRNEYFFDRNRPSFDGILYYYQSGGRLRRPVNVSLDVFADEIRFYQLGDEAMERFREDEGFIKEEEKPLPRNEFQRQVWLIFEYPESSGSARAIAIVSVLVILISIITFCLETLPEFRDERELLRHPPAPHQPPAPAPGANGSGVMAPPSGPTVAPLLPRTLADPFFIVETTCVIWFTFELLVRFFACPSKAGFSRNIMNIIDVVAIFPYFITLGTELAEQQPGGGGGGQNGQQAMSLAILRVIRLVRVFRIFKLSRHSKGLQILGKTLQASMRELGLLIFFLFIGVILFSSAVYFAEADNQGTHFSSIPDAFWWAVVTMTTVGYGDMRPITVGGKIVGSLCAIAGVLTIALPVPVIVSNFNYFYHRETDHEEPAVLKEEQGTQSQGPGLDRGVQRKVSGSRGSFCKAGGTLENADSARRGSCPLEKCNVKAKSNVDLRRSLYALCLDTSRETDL

This assay has as its target T1, Kv1.5 channels from humans (Homo sapiens, UniProt P22460).
T1 construct: expressed in transfected cells; host or cells: Xenopus laevis oocytes injected with in vitro synthesized RNA
Put plainly: Kv1.5 currents in Xenopus oocytes, 2-microelectrode voltage clamp. As to conditions: human Kv1.5 expressed in Xenopus laevis oocytes; voltage jumps to 0 mV and 40 mV lasting 500 ms; room temperature; Hill equation. The format is cell-based. Here is the method:
Kv1.5 channels from humans were expressed in Xenopus oocytes. To this end, oocytes from Xenopus laevis were first isolated and defolliculated. RNA coding for Kv1.5 synthesized in vitro was then injected into these oocytes. After a Kv1.5 protein expression for 1-7 days, Kv1.5 currents were measured on the oocytes using the 2-microelectrode voltage clamp technique. The Kv1.5 channels were in this case as a rule activated using voltage jumps to 0 mV and 40 mV lasting 500 ms. The bath was rinsed using a solution of the following composition: NaCl 96 mM, KCl 2 mM, CaCl2 1.8 mM, MgCl2 1 mM, HEPES 5 mM (titrated with NaOH to pH 7.4). These experiments were carried out at room temperature. The following were employed for data acquisition and analysis: Gene clamp amplifier (Axon Instruments, Foster City, USA) and MacLab D/A converter and software (ADInstruments, Castle Hill, Australia). The substances according to the invention were tested by adding them to the bath solution in different concentrations. The effects of the substances were calculated as the percentage inhibition of the Kv1.5 control current which was obtained when no substance was added to the solution. The data were then extrapolated using the Hill equation in order to determine the inhibition concentrations IC50 for the respective substances.
By IC50 is commonly meant the concentration that gives 50% inhibition. A higher IC50 goes with weaker potency. The molecule `CC(C)CCNC(=O)c1sccc1-c1ccccc1CNC(=O)OC(C)(C)C` [Example 1, tert-Butyl {2-[2-(3-methylbutylcarbamoyl)thiophen-3-yl]benzyl}carbamate] displayed an IC50 of 4 µM.

As to `CC(C)(C)OC(=O)NCc1ccccc1-c1ccsc1C(=O)NCc1ccc(F)cc1F` [Example 2], the midpoint of inhibition, the IC50, lay at 5 µM.

For `CC(C)(C)OC(=O)NCc1ccccc1-c1ccoc1C(=O)NCc1ccc(F)cc1F` [Example 3], 9 µM corresponded to half-maximal inhibition (IC50).

In turn, `CC(C)CCNC(=O)c1occc1-c1ccccc1CNC(=O)OC(C)(C)C` [Example 4] gave an IC50 of 10 µM.

For `CC(C)(C)OC(=O)NCc1ccccc1-c1sccc1C(=O)NCc1ccc(F)cc1F` [Example 5], half-maximal inhibition (IC50) was put at 3.1 µM.

On to `CC(C)CCNC(=O)c1ccsc1-c1ccccc1CNC(=O)OC(C)(C)C` [Example 6], for which the IC50 is < 100 µM.

Molecule `CC(C)(C)OC(=O)NCc1ccccc1-c1occc1C(=O)NCc1ccc(F)cc1F` [Example 7] showed an IC50 of 10 µM.

Consider `CC(C)CCNC(=O)c1ccoc1-c1ccccc1CNC(=O)OC(C)(C)C` [Example 8], for which the IC50 is 5.2 µM.

Regarding `CC(C)(C)OC(=O)NCc1ccccc1-c1ccc(C(=O)NCc2ccc(F)cc2F)o1` [Example 9], the IC50 was < 100 µM.

Take `CC(C)CCNC(=O)c1ccc(-c2ccccc2CNC(=O)OC(C)(C)C)o1` [Example 10]: the IC50 was < 100 µM.

On to `CC(C)CCNC(=O)c1sccc1-c1ccccc1CNC(=O)OCc1ccccc1` [Example 11, Benzyl {2-[2-(3-methylbutylcarbamoyl)thiophen-3-yl]-benzyl}carbamate], for which inhibition was half-maximal at 3 µM (IC50).

For `O=C(NCc1ccccc1-c1ccsc1C(=O)NCc1ccc(F)cc1F)OCc1ccccc1` [Example 12], half-maximal inhibition (IC50) was put at 2 µM.

Consider `CC(C)CCNC(=O)c1occc1-c1ccccc1CNC(=O)OCc1ccccc1` [Example 13], for which the IC50 was 5.6 µM.

Turning to `O=C(NCc1ccccc1-c1ccoc1C(=O)NCc1ccc(F)cc1F)OCc1ccccc1` [Example 14], the IC50 is < 100 µM.

On to `CC(C)CCNC(=O)c1ccsc1-c1ccccc1CNC(=O)OCc1ccccc1` [Example 15], for which the IC50 amounted to 1.2 µM.

The molecule `O=C(NCc1ccccc1-c1sccc1C(=O)NCc1ccc(F)cc1F)OCc1ccccc1` [Example 16] had an IC50 of 1.9 µM.

For the molecule `CC(C)CCNC(=O)c1ccoc1-c1ccccc1CNC(=O)OCc1ccccc1` [Example 17], inhibition was half-maximal at 2.2 µM (IC50).

In turn, `O=C(NCc1ccccc1-c1occc1C(=O)NCc1ccc(F)cc1F)OCc1ccccc1` [Example 18] returned an IC50 of 5.2 µM.

On to `O=C(NCc1ccccc1-c1ccc(C(=O)NCc2ccc(F)cc2F)o1)OCc1ccccc1` [Example 19], for which the IC50 was < 100 µM.

Turning to `COc1ccc(CC(=O)NCc2ccccc2-c2ccoc2C(=O)NCCC(C)C)cc1` [Example 20], the IC50 is < 100 µM.

On to `COc1ccc(CC(=O)NCc2ccccc2-c2ccoc2C(=O)NCc2ccc(F)cc2F)cc1` [Example 21], for which the IC50 came out at 3.9 µM.

In turn, `COc1ccc(CC(=O)NCc2ccccc2-c2ccsc2C(=O)NCCC(C)C)cc1` [Example 22] displayed an IC50 of 1.7 µM.

`COc1ccc(CC(=O)NCc2ccccc2-c2ccsc2C(=O)NCc2ccc(F)cc2F)cc1` [Example 23] had an IC50 of 1.2 µM.

In turn, `COc1ccc(CC(=O)NCc2ccccc2-c2sccc2C(=O)NCCC(C)C)cc1` [Example 24] returned an IC50 of 2.2 µM.

Take `COc1ccc(CC(=O)NCc2ccccc2-c2sccc2C(=O)NCc2ccc(F)cc2F)cc1` [Example 25]: the half-maximal inhibitory concentration (IC50) is 1.5 µM.

Turning to `COc1ccc(CC(=O)NCc2ccccc2-c2occc2C(=O)NCCC(C)C)cc1` [Example 26], inhibition was half-maximal at 3.9 µM (IC50).

In turn, `COc1ccc(CC(=O)NCc2ccccc2-c2occc2C(=O)NCc2ccc(F)cc2F)cc1` [Example 27] displayed an IC50 of 6.6 µM.

Take `COc1ccc(CC(=O)NCc2ccccc2-c2ccc(C(=O)NCCC(C)C)o2)cc1` [Example 28]: the IC50 was < 100 µM.

The molecule `COc1ccc(CC(=O)NCc2ccccc2-c2ccc(C(=O)NCc3ccc(F)cc3F)o2)cc1` [Example 29] showed an IC50 of 4.2 µM.
